According to the NIST ThermoML archive (doi:10.1016/j.tca.2009.06.015):

Assays:
[1] = refractive index (Na D-line) (dimensionless); xn = mol fraction of the nth substance listed; settings: 101 kPa, Liquid, Standard Abbe refractometry
[2] = xn = mol fraction of the nth substance listed; settings: 293.15 K, 101 kPa, Liquid; for viscosity: Capillary tube (Ostwald / Ubbelohde) method; for mass density: Vibrating tube method

CC#N [acetonitrile] + CC(C)O
refractive index, [1]
Settings | 293.15 K | 298.15 K | 303.15 K | 308.15 K
x1 = 0.0496 | 1.3757 | 1.3733 | 1.3715 | 1.3694
x1 = 0.0906 | 1.3751 | 1.3724 | 1.3707 | 1.3687
x1 = 0.1529 | 1.3737 | 1.3713 | 1.3694 | 1.3679
x1 = 0.2022 | 1.3726 | 1.3702 | 1.3684 | 1.367
x1 = 0.2783 | 1.3705 | 1.3687 | 1.3666 | 1.3657
x1 = 0.3678 | 1.3677 | 1.3667 | 1.3641 | 1.3637
x1 = 0.4768 | 1.364 | 1.3635 | 1.3608 | 1.3605
x1 = 0.6132 | 1.359 | 1.3591 | 1.3561 | 1.3557
x1 = 0.7714 | 1.3528 | 1.3528 | 1.35 | 1.3491
x1 = 0.9207 | 1.3469 | 1.3452 | 1.3433 | 1.3417
x1 = 1 | 1.3436 | 1.3411 | 1.339 | 1.3371

[2]
Settings | mass density [kg/m3] | viscosity [mPa·s]
x1 = 0.0496 | 784.97 | 1.972
x1 = 0.0906 | 784.72 | 1.688
x1 = 0.1529 | 784.31 | 1.368
x1 = 0.2022 | 783.9 | 1.176
x1 = 0.2783 | 783.36 | 0.9608
x1 = 0.3678 | 782.71 | 0.7912
x1 = 0.4768 | 782.02 | 0.6502
x1 = 0.6132 | 781.53 | 0.51
x1 = 0.7714 | 781.13 | 0.4156
x1 = 0.9207 | 781.26 | 0.3716
x1 = 1 | 782.04 | 0.3542
